Measured values as given in US10106854B2, “Biomarkers for prostate cancer” (Aarhus Universitet, priority 2012, dated 2018).

Test system: BPH1, PNT1A, LNCaP, 22rv1, PC3 and DU145 cell lines
Assay: 5-aza-dC treatment, RNA extraction and RT-qPCR
Type: cell-based, human
Details: prostatic cell lines, 1 μM 5-aza-dC for two days, five day recovery; when methylation was reduced, not when DNA methylation levels were unaffected
Method: BPH1, PNT1A, LNCaP, 22rv1, PC3 and DU145 cell lines at >50% confluence were treated with 1 μM freshly prepared 5-aza-2′-deoxycytidine (5-aza-dC) in 50% acetic acid (Sigma, cat. no.: A3656) for two days. After a five day recovery period, DNA was purified as described above. RNA was purified using the RNeasy Mini kit from Qiagen and stored at −80° C. One μg RNA was reverse transcribed using 100 pmol oligo-dT(24) primer and the SuperScript II Reverse Transcriptase kit (Invitrogen). Taqman® gene expression assays: AOX1 (Hs01565232_m1), C1orf114 (Hs00982321_g1), GAS6 (Hs01090305_m1), and HAPLN3 (Hs00820260_m1) were used with Taqman Mastermix no UNG. UBC was used for normalization (primers: 5′-GATTTGGGTCGCGGTTCTT-3′ and 5′-[…]-3′ used with Power Sybr Green Mastermix). Assays were run twice in triplicate in 10 μL reactions. Reactions were mixed and run as described for qMSP assays.

Nc1ncn([C@H]2C[C@H](O)[C@@H](CO)O2)c(=O)n1 [5-aza-dC, 5-aza-2′-deoxycytidine]
RNA expression from DNA hypermethylated genes: generally stimulated RNA expression
